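Assay format: 96-well plates, 48-hour exposure. GI50 = concentration required for 50% inhibition of growth. TGI is the concentration that stops growth completely.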 A value given as a limit tells only on which side of the number the result lay.

Some test systems named below: 786-0 renal; A498 renal; HCT-15 colon; KM12 colon; LOX IMVI melanoma; MCF7 breast; MDA-MB-435; MOLT-4 leukemia; SF-268 CNS; SNB-75 CNS.
Assay in all cases: DTP human tumour cell line panel, 48 h

Consider `COC(=O)c1ccc(CN2C(=O)C(Cl)=C(Nc3ccc(OC)c(Cl)c3)C2=O)cc1`, for which the GI50 in the test on 786-0 renal is 36.2 µM; in the test on A498 renal, greater than 50 µM; with HCT-15 colon, 5.2 µM; in the test with KM12 colon, 5.42 µM; in the test on LOX IMVI melanoma, 5.66 µM; in the test on MCF7 breast, 12.6 µM. The GI50 was 47.3 µM in the test with MDA-MB-435, 5.83 µM in the test on MOLT-4 leukemia and 15.4 µM in the test on SF-268 CNS. Also, the TGI in the test with 786-0 renal was greater than 50 µM; in the test with A498 renal it was greater than 50 µM; in the test on HCT-15 colon, 42.4 µM; with KM12 colon, greater than 50 µM; in the test with LOX IMVI melanoma it was 26.7 µM; with MCF7 breast it was greater than 50 µM. The TGI with MDA-MB-435 was greater than 50 µM; in the test with MOLT-4 leukemia, 49 µM; with SF-268 CNS it was greater than 50 µM.

Take `C/C=C(/C)c1cnc(CC(C)C)c(=O)[nH]1`: the TGI with 786-0 renal, in the test on A498 renal, in the test with HCT-15 colon, with KM12 colon, in the test on LOX IMVI melanoma and with MDA-MB-435 was greater than 100 µM in each case. For the same compound, the concentration for total growth inhibition (TGI) in the test on MOLT-4 leukemia, in the test on SF-268 CNS and in the test with SNB-75 CNS was greater than 100 µM throughout.

As to `CC1(O)CCC2(C)C(=O)C1(C)CCC21OCCO1` (centres undefined), the TGI in the test on 786-0 renal, with HCT-15 colon, in the test on KM12 colon, with MOLT-4 leukemia and with SF-268 CNS was greater than 100 µM each time.

As for `Cc1c(Cl)cccc1NC(=O)/C(Cl)=C(\Cl)C(=O)O`, the TGI with 786-0 renal is 33.3 µM; in the test on A498 renal, greater than 100 µM; in the test on HCT-15 colon it was 30 µM; in the test on KM12 colon, 31.1 µM; with LOX IMVI melanoma, 32.7 µM; with MOLT-4 leukemia it was 48.2 µM. Further, the TGI in the test with SF-268 CNS came out at 40.9 µM; with SNB-75 CNS, 46.7 µM.

Turning to `O=C1CCN2CCC(=O)c3c2c(cc2ccccc32)N1`, the TGI in the test on 786-0 renal, in the test on A498 renal, in the test on HCT-15 colon, in the test with KM12 colon, with LOX IMVI melanoma and with MOLT-4 leukemia was greater than 100 µM throughout. The TGI with SF-268 CNS and in the test with SNB-75 CNS was greater than 100 µM throughout.

As for `COc1c(Sc2ccccc2)cc(Sc2ccccc2)c2cccnc12`, the total growth inhibition concentration (TGI) in the test with 786-0 renal is 65.9 µM; in the test on A498 renal it was 82.3 µM; with HCT-15 colon, 49.3 µM; with KM12 colon it was greater than 100 µM; in the test on LOX IMVI melanoma it was 42.7 µM; with MOLT-4 leukemia, 48.1 µM. Moreover, the total growth inhibition concentration (TGI) in the test with SF-268 CNS was greater than 100 µM; with SNB-75 CNS it was 66 µM.

Turning to `CCOC(=O)C1=C(Nc2ccc(Cl)c(Cl)c2)OC/C1=N\NC(=O)Cc1ccccc1`, the concentration for total growth inhibition (TGI) in the test with 786-0 renal, with A498 renal, in the test with KM12 colon, with LOX IMVI melanoma, in the test on MOLT-4 leukemia and in the test on SF-268 CNS was greater than 100 µM in each case. In addition, the concentration for total growth inhibition (TGI) in the test on SNB-75 CNS is greater than 100 µM.

Turning to `COC(=O)C(CC(=O)c1c[nH]c2ccccc12)c1c[nH]c2ccccc12` (centres undefined), the concentration for total growth inhibition (TGI) in the test on 786-0 renal is 57.7 µM; with A498 renal, 40 µM; in the test on HCT-15 colon, 36.3 µM; with KM12 colon it was greater than 10 µM; in the test on MOLT-4 leukemia, 46.7 µM; with SNB-75 CNS it was 58 µM.

In the case of `Clc1ccc2c(c1)[nH]c1c2nc2sccn21`, the TGI with 786-0 renal, in the test with A498 renal, in the test with HCT-15 colon, with KM12 colon, in the test with LOX IMVI melanoma and in the test on MOLT-4 leukemia was greater than 100 µM in each case. Further, the TGI in the test with SF-268 CNS and in the test on SNB-75 CNS was greater than 100 µM throughout.

For the compound `Cc1c(C(=O)CC(=O)C(=O)Nc2cc(Cl)ccc2Cl)[n+](=O)c2ccccc2n1[O-]`, the TGI in the test on 786-0 renal was greater than 100 µM; in the test on A498 renal, greater than 100 µM; in the test with HCT-15 colon, 90.2 µM; with KM12 colon it was greater than 100 µM; with LOX IMVI melanoma it was 93.5 µM; in the test on MOLT-4 leukemia it was 66.5 µM. Besides, the TGI in the test on SF-268 CNS was greater than 100 µM; in the test on SNB-75 CNS, 78.1 µM.

As to `COc1ccccc1NC(=O)C1=C(C)NC(C)=C(C(=O)Nc2ccccc2OC)C1c1ccc(N(C)C)cc1`, the TGI was greater than 100 µM in the test on 786-0 renal; greater than 100 µM in the test on A498 renal; 56.9 µM in the test with KM12 colon; 42.2 µM in the test on LOX IMVI melanoma; 64.5 µM with MOLT-4 leukemia; greater than 100 µM in the test on SF-268 CNS. In the test with SNB-75 CNS, this compound returned a TGI of 80.6 µM.

For the compound `NC(=O)c1csc(C2CCC(CO)O2)n1` (centres undefined), the TGI in the test with 786-0 renal, in the test on A498 renal, in the test on HCT-15 colon, in the test on KM12 colon, in the test on LOX IMVI melanoma and with MOLT-4 leukemia was greater than 100 µM in each case. Also, the TGI with SF-268 CNS is greater than 100 µM.

On to `COC(=O)c1cc(-c2ccc(OC)cc2)[nH]c1N/N=C/c1c(Cl)cccc1Cl`, for which the GI50 with 786-0 renal is 0.331 µM; in the test on A498 renal, 0.185 µM; in the test with HCT-15 colon, 0.204 µM; in the test on KM12 colon, 0.141 µM; in the test on LOX IMVI melanoma, 0.146 µM; in the test on MCF7 breast it was 0.107 µM. The GI50 is 0.415 µM in the test on MOLT-4 leukemia, 0.203 µM with SF-268 CNS and 0.161 µM with SNB-75 CNS. The concentration for total growth inhibition (TGI) in the test with 786-0 renal amounted to 4.79 µM; with A498 renal it was 3.43 µM; with HCT-15 colon it was 1.49 µM; with KM12 colon it was 6.75 µM; in the test on LOX IMVI melanoma, 5.42 µM; with MCF7 breast it was 0.887 µM. Moreover, the values for the total growth inhibition concentration (TGI) with SF-268 CNS and in the test on SNB-75 CNS were 10.4 µM and 0.725 µM, respectively.

Regarding `CCOC(=O)c1c2c(n(Cc3ccccc3)c1C)-c1nc(Cc3ccccc3)[nH]c1C(=O)C2=O`, the GI50 in the test with 786-0 renal was 1.77 µM; in the test on A498 renal it was 1.74 µM; with HCT-15 colon, 1.59 µM; in the test with KM12 colon it was 1.83 µM; with LOX IMVI melanoma, 1.78 µM; in the test on MCF7 breast, 1.66 µM. The GI50 in the test with MOLT-4 leukemia was 2.13 µM; in the test with SF-268 CNS it was 1.91 µM; in the test with SNB-75 CNS, 1.49 µM. The TGI was determined as 3.29 µM with 786-0 renal; 3.17 µM in the test with A498 renal; 2.94 µM with HCT-15 colon; 3.83 µM in the test on KM12 colon; 3.17 µM in the test on LOX IMVI melanoma; 4.34 µM in the test with MCF7 breast. Besides, the total growth inhibition concentration (TGI) in the test on MOLT-4 leukemia was 5.41 µM; with SF-268 CNS it was 4.59 µM; in the test with SNB-75 CNS it was 2.81 µM.

The values above are taken from PubChem BioAssay (NCI).
